Reference: patent publication US10160705B2, “Class of HDAC inhibitors expands the renal progenitor cells population and improves the rate of recovery from acute kidney injury” (University of Pittsburgh—Of the Commonwealth System of …, priority 2011, dated 2018)
Read-outs that look alike come from different tables or passages of the source.

Experiments:
kidney field = test: In situ hybridization for kidney markers (pax2a, pax8, cdh17, wt1a, slc4a4, slcl2a1); type: in vivo, zebrafish; conditions: 3 μM
Method: PTBA was synthesized as described below. Hydroxyurea and aphidicolin were obtained from Sigma-Aldrich.
In situ hybridization and immunocytochemistry: In situ hybridization was performed as previously described with some modifications.142 Hybridization temperature was 65° C. Embryos were blocked in 2% blocking reagent (Roche) with 5% sheep serum in MAB (100 mM maleic acid and 150 mM NaCl [pH 7.5]). Whole-mount immunocytochemistry with 1:25 mouse anti-α6F antibody (Developmental Studies Hybridoma Bank) and 1:100 Cy3 secondary antibody (Jackson ImmunoResearch) was performed as described previously.108 Embryos were embedded in JB-4 for sectioning per the manufacturer's instructions (Polysciences), sectioned at 5 μm, and mounted with Cytoseal 60 (Richard-Allan Scientific).

lhx1a, pax2a, pax8, ntla = test: Relative qPCR in the trunk region of 10-somite embryos; type: in vivo, zebrafish; conditions: 3 μM
Method: Several of the genes analyzed by qPCR, including lhx1a and pax2a, show expression in anterior regions of the embryo as well as the IM. To focus more specifically on effects in the IM, cDNA samples taken from the trunks of treated and control embryos were examined. Samples for trunk RNA extraction were prepared by cutting embryos just above the first somite with microscissors and discarding the anterior portion. The trunk portions were homogenized with a plastic microcentrifuge pestle in 500 μL of TRI reagent (Ambion), and RNA was isolated using an RNeasy Micro Kit (QIAGEN) per the manufacturer's instructions. 1 μg RNA was heated to 75° C. for 5 min and then placed on ice. […]
Primer sets were designed using NetPrimer and Beacon Designer (ver. 7.51) primer analysis software (PREMIER Biosoft). […] Primer melting temperatures were maintained between 60° C. and 64° C. as determined by NetPrimer. […] The reference gene primer sets have been previously described (Tang, R., Dodd, A., Lai, D., McNabb, W. C. & Love, D. R. Validation of zebrafish (Danio rerio) reference genes for quantitative real-time RT-PCR normalization. Acta Biochim Biophys Sin (Shanghai) 39, 384-390, (2007)) with one modification. […]
Relative gene expression was calculated using iQ5 software (ver. 2.0, Bio-Rad) to determine normalized expression levels (ΔΔCt method). […]

renal progenitor cells = test: In situ hybridization for lhx1a expression in 10-somite embryos (renal progenitor cell expansion); type: in vivo; on Lhx1a expansion caused by analog treatment, 3 μM: key: effective (+); partially effective (+/−); ineffective (−); Analogs that killed all embryos at a given concentration before reaching 10 somites are listed as XX; on Lhx1a expansion caused by analog treatment, 800 nM: key: effective (+); partially effective (+/−); ineffective (−); Analogs that killed all embryos at a given concentration before reaching 10 somites are listed as XX
Method in brief: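 Zebrafish embryos treated with compound, then colorimetric whole-mount in situ hybridization (65° C) for lhx1a mRNA at 10 somites. Embryos with expanded kidney field counted manually as percent of total. EC50 taken as 50% point of percent-expansion trendline; compounds also classed effective, partial or ineffective versus PTBA at matched concentration.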

For `O=C(O)CCCSc1ccccc1` [UPHD-00020, 4-(phenylthio)butanoic acid (PTBA)], the “expansion of slc4a4 (proximal tubule)” value (kidney field; 48 hpf) was 92%, the “pax2a expression at 24 hpf” value (kidney field; treatment beginning at 16.5 hpf (15 somites)) was “no kidney field expansion” and the “pax2a expression at 24 hpf” value (kidney field; treatment initiated between 2 hpf and 14 hpf (10 somites)) was “expanded pax2a expression”. For the same compound, the “increase in pax2a expression by qPCR” value (lhx1a, pax2a, pax8, ntla) was “almost two-fold increase”, the “increase in relative lhx1a transcript by qPCR” value (lhx1a, pax2a, pax8, ntla) was “three-fold increase” and the “Lhx1a expansion caused by analog treatment, 800 nM” value (renal progenitor cells; 800 nM from 2 hpf, 10-somite embryos) was “+/−”. For the same compound, the “Lhx1a expansion caused by analog treatment, 1.5 μM” value (renal progenitor cells; 1.5 μM from 2 hpf, 10-somite embryos) was “+”, the “Lhx1a expansion caused by analog treatment, 3 μM” value (renal progenitor cells; 3 μM from 2 hpf, 10-somite embryos) was “+” and the responders at 1.5 µM (renal progenitor cells; Danio rerio, 1.5 μM from 2 hpf, 10-somite embryos, read-out: lhx1a expansion, percent of treated embryos) was 83%. It also gave a responders at 3 µM (renal progenitor cells; Danio rerio, 3 μM PTBA added at 8 hpf after 0.5% DMSO at 5 hpf (HUA study), read-out: lhx1a expansion, percent of treated embryos) of 97%, a responders at 3 µM (renal progenitor cells; Danio rerio, 3 μM PTBA together with HUA (hydroxyurea and aphidicolin), read-out: lhx1a expansion, percent of treated embryos) of 13% and a responders at 3 µM (renal progenitor cells; Danio rerio, 3 μM from 2 hpf, 10-somite embryos, read-out: lhx1a expansion, percent of treated embryos) of 95%. The responders at 3 µM (renal progenitor cells; Danio rerio, embryos injected with 200 pg DN-RARα mRNA, 3 μM PTBA from 5 hpf, read-out: lhx1a expansion, percent of treated embryos) was 19%, the responders at 3 µM (renal progenitor cells; Danio rerio, mock-injected embryos, 3 μM PTBA from 5 hpf, read-out: lhx1a expansion, percent of treated embryos) was 90% and the responders at 0.2 µM (renal progenitor cells; Danio rerio, percent of embryos with expanded kidney field, 200 nM, read-out: Expansion of Cells (including repeats* and recounts**) 200 nM) was 10%. For the same compound, the responders at 0.4 µM (renal progenitor cells; Danio rerio, percent of embryos with expanded kidney field, 400 nM, read-out: Expansion of Cells (including repeats* and recounts**) 400 nM) was 10%, the responders at 3 µM (renal progenitor cells; Danio rerio, percent of embryos with expanded kidney field, 3 μM, read-out: Expansion of Cells (including repeats* and recounts**) 3 μM) was 100% and the EC50 (renal progenitor cells; Danio rerio, first pass EC50 from percent expansion (Excel trendline), average where several experiments) was 1400 nM.
